# In US20100120858A1, “Piperidine Derivatives” (Pfizer Inc., priority 2006, published 2010):
# Counter-ions that a name gives are not always drawn.
# How the values were obtained:
# [1] = target: human norepinephrine transporter (Homo sapiens, UniProt P23975); experiment: Human norepinephrine (hNET) receptor binding, [125I]-RTI-55; settings: membranes of HEK-293 cells transfected with human norepinephrine transporter cDNA; 50 pM [125I]-RTI-55; IC50 converted by Cheng-Prusoff
# Description: Cell pastes of human embryonic kidney 293 (HEK-293) cells transfected with a human norepinephrine transporter cDNA were prepared. The cell pastes were resuspended in 400 to 700 mL of Krebs-N-2-hydroxyethylpiperazine-N′-2-ethanesulfonic acid (HEPES) assay buffer (25 mM HEPES, 122 mM NaCl, 3 mM KCl, 1.2 mM MgSO4, 1.3 mM CaCl2, and 11 mM glucose, pH 7.4) with a Polytron homogenizer at setting 7 for 30 seconds. Aliquots of membranes (5 mg/mL protein) were stored in liquid nitrogen until used.
# The binding assay was set up in Beckman deep-well polypropylene plates with a total volume of 250 μL containing: test compound (concentration of 10^−5M to 10^−12M), cell membranes, and 50 pM [^125I]-RTI-55 ([^125I]-3 beta-(4-iodophenyl)tropan-2 beta-carboxylic acid methyl ester) (Perkin Elmer, NEX-272; specific activity 2200 Ci/mmol). The reaction was incubated by gentle agitation for 90 minutes at room temperature and was terminated by filtration through Whatman GF/C filter plates using a Brandel 96-well plate harvester. Scintillation fluid (100 μL) was added to each well, and bound [^125I]-RTI-55 was determined using a Wallac Trilux Beta Plate Counter. Test compounds were run in duplicate, and specific binding was defined as the difference between binding in the presence and absence of 10 μM desipramine.
# Excel and GraphPad Prism software were used for data calculation and analysis. IC50 values were converted to Ki values using the Cheng-Prusoff equation. The Ki values (nM) for the hNET are reported below in Table 13.
# [2] = target: human serotonin transporter (Homo sapiens, UniProt P31645); experiment: Human serotonin (hSERT) receptor binding, [125I]-RTI-55; settings: membranes of HEK-293 cells transfected with human serotonin transporter cDNA, IC50 converted by Cheng-Prusoff
# Chain of human serotonin transporter (P31645 whole entry): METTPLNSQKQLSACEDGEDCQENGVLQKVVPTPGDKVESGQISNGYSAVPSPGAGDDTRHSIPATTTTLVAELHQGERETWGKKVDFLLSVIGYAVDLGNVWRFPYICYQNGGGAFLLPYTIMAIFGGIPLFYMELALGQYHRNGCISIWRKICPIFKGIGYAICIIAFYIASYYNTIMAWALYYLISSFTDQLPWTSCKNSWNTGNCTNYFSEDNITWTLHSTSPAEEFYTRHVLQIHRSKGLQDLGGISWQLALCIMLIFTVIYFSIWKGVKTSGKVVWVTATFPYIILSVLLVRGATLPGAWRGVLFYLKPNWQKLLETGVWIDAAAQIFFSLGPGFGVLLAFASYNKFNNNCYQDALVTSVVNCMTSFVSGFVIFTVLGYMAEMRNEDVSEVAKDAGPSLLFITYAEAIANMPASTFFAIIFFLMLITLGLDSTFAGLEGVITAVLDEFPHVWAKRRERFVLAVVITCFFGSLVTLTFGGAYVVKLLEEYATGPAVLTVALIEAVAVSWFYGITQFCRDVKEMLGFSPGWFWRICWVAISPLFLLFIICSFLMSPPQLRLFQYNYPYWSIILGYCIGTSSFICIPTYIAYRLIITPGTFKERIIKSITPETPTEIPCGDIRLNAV
# Description: Cell pastes of HEK-293 cells transfected with a human serotonin transporter cDNA were prepared. The cell pastes were resuspended in 400 to 700 ml of Krebs-HEPES assay buffer (25 mM HEPES, 122 mM NaCl, 3 mM KCl, 1.2 mM MgSO4, 1.3 mM CaCl2, and 11 mM glucose, pH 7.4) with a Polytron homogenizer at Setting 7 for 30 seconds. Aliquots of membranes (˜2.5 mg/mL protein) were stored in liquid nitrogen until used.
# Assays were set up in FlashPlates pre-coated with 0.1% polyethyleneimine (PEI) in a total volume of 250 μL containing: test compound (concentration 10^−5M to 10^−12M), cell membranes, and […] [^125I]-RTI-55 (Perkin Elmer, NEX-272; specific activity 2200 Ci/mmol). The reaction was incubated and gently agitated for 90 minutes at room temperature, and terminated by removal of assay volume. Plates were covered, and bound [^125I]-RTI-55 was determined using a Wallac Trilux Beta Plate Counter. Test compounds were run in duplicate, and specific binding was defined as the difference between binding in the presence and absence of 10 μM citalopram.
# Excel and GraphPad Prism software were used for data calculation and analysis. IC50 values were converted to Ki values using the Cheng-Prusoff equation.
# Chain of human norepinephrine transporter (P23975 whole entry): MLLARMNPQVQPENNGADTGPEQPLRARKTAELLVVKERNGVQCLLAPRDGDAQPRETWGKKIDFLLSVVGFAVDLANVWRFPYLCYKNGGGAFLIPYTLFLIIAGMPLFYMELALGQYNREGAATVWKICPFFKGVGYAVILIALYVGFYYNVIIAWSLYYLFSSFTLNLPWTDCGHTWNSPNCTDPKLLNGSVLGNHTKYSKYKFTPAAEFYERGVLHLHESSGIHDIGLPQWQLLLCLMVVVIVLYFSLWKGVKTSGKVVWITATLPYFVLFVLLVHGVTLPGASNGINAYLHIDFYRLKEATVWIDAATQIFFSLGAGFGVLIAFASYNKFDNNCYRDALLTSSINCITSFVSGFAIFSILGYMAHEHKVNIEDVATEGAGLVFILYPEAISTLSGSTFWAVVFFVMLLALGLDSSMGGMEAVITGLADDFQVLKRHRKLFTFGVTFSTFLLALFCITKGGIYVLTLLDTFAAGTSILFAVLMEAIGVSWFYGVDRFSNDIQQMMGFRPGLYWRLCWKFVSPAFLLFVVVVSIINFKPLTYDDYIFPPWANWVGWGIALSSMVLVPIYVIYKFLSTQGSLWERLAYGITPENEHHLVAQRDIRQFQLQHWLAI
Ki [1],Ki [2],SMILES
46 nM,120 nM,"COc1ccc(OC[C@H]2CCCNC2)c(Oc2ccc(Cl)cc2OC)c1 [Example 32, (S)-3-[2-(4-chloro-2-methoxy-phenoxy)-4-methoxy-phenoxymethyl]-piperidine fumaric acid]"
32 nM,36 nM,"Fc1cc(Cl)ccc1Oc1cc(Cl)ccc1OC[C@H]1CCCNC1 [Example 33, (S)-3-[4-chloro-2-(4-chloro-2-fluoro-phenoxy)-phenoxymethyl]-piperidine fumaric acid]"
16 nM,21 nM,"COc1cc(Cl)ccc1Oc1cc(Cl)ccc1OC[C@H]1CCCNC1 [Example 34, (S)-3-[4-chloro-2-(4-chloro-2-methoxy-phenoxy)-phenoxymethyl]-piperidine fumaric acid]"
250 nM,35 nM,"COc1cc(Cl)ccc1Oc1cc(C(F)(F)F)ccc1OC[C@H]1CCCNC1 [Example 35, (S)-3-[2-(4-chloro-2-methoxy-phenoxy)-4-trifluoromethyl-phenoxymethyl]-piperidine fumaric acid]"
830 nM,110 nM,"COc1cc(Cl)ccc1Oc1cc(F)ccc1OC[C@H]1CCCNC1 [Example 36, (S)-3-[2-(4-chloro-2-methoxy-phenoxy)-4-fluoro-phenoxymethyl]-piperidine fumaric acid]"
77 nM,22 nM,"COc1cc(F)ccc1Oc1cc(C(F)(F)F)ccc1OC[C@H]1CCCNC1 [Example 37, (S)-3-[2-(4-fluoro-2-methoxy-phenoxy)-4-trifluoromethyl-phenoxymethyl]-piperidine fumaric acid]"
3.6 nM,1900 nM,"Fc1ccc(Oc2c(F)cccc2OC[C@H]2CCCNC2)c(Cl)c1 [Example 38, (S)-3-[2-(2-chloro-4-fluoro-phenoxy)-3-fluoro-phenoxymethyl]-piperidine fumaric acid]"
802 nM,110 nM,"Fc1ccc(Oc2cc(F)ccc2OC[C@H]2CCCNC2)c(Cl)c1 [Example 39, (S)-3-[2-(2-chloro-4-fluoro-phenoxy)-4-fluoro-phenoxymethyl]-piperidine fumaric acid]"
7.5 nM,14 nM,"COc1cccc(F)c1Oc1cc(Cl)ccc1OC[C@H]1CCCNC1 [Example 40, (S)-3-[4-chloro-2-(2-fluoro-6-methoxy-phenoxy)-phenoxymethyl]-piperidine fumaric acid]"
3.8 nM,210 nM,"Cc1ccc(OC[C@H]2CCCNC2)c(Oc2ccc(F)cc2)n1 [Example 41, (S)-2-(4-fluoro-phenoxy)-6-methyl-3-(piperidin-3-ylmethoxy)-pyridine fumaric acid]"
3.6 nM,110 nM,"Cc1ccc(OC[C@H]2CCCNC2)c(Oc2c(F)cccc2F)n1 [Example 42, (S)-2-(2,6-difluoro-phenoxy)-6-methyl-3-(piperidin-3-ylmethoxy)-pyridine hydrochloride]"
10.4 nM,> 9200 nM,"Cc1ccc(OC[C@H]2CCCNC2)c(Oc2c(Cl)cccc2Cl)n1 [Example 47, (S)-2-(2,6-dichloro-phenoxy)-6-methyl-3-(piperidin-3-ylmethoxy)-pyridine hydrochloride]"
61 nM,> 9200 nM,"Cc1ccc(OC[C@H]2CCCNC2)c(Oc2c(Cl)cc(F)cc2Cl)n1 [Example 48, (S)-2-(2,6-dichloro-4-fluoro-phenoxy)-6-methyl-3-(piperidin-3-ylmethoxy)-pyridine hydrochloride]"
6.1 nM,25 nM,"Cc1ccc(OC[C@H]2CCCNC2)c(Oc2c(F)ccc(F)c2F)n1 [Example 49, (S)-6-methyl-3-(piperidin-3-ylmethoxy)-2-(2,3,6-trifluoro-phenoxy)-pyridine hydrochloride]"
5.5 nM,60.3 nM,"Cc1ccc(OC[C@H]2CCCNC2)c(Oc2c(F)ccc(Cl)c2F)n1 [Example 50, (S)-2-(3-chloro-2,6-difluoro-phenoxy)-6-methyl-3-(piperidin-3-ylmethoxy)-pyridine hydrochloride]"
27 nM,7300 nM,"COc1ccc(Oc2ncccc2OC[C@H]2CCCNC2)cc1 [Example 51, (S)-2-(4-methoxy-phenoxy)-3-(piperidin-3-ylmethoxy)-pyridine fumaric acid]"

Ki [1],Ki [2],SMILES
4 nM,5200 nM,"Cc1ccc(Oc2ncccc2OC[C@H]2CCCNC2)cc1 [Example 52, (S)-2-(4-methyl-phenoxy)-3-(piperidin-3-ylmethoxy)-pyridine fumaric acid]"
3 nM,7050 nM,"Fc1ccc(Oc2ncccc2OC[C@H]2CCCNC2)cc1 [Example 53, (S)-2-(4-fluoro-phenoxy)-3-(piperidin-3-ylmethoxy)-pyridine fumaric acid]"
3 nM,2700 nM,"Fc1ccc(Oc2ncccc2OC[C@H]2CCCNC2)c(F)c1 [Example 54, (S)-2-(2,4-difluoro-phenoxy)-3-(piperidin-3-ylmethoxy)-pyridine fumaric acid]"
17 nM,> 10000 nM,"Clc1ccc(Oc2ncccc2OC[C@H]2CCCNC2)cc1 [Example 55, (S)-2-(4-chloro-phenoxy)-3-(piperidin-3-ylmethoxy)-pyridine fumaric acid]"
58 nM,> 10000 nM,"N#Cc1ccc(Oc2ncccc2OC[C@H]2CCCNC2)cc1 [Example 57, (S)-4-[3-(piperidin-3-ylmethoxy)-pyridin-2-yloxy]-benzonitrile fumaric acid]"
1200 nM,3990 nM,"N#Cc1ccc(Oc2ncccc2OC[C@H]2CCCNC2)cc1C#N [Example 58, (S)-4-[3-(piperidin-3-ylmethoxy)-pyridin-2-yloxy]-phthalonitrile fumaric acid]"
140 nM,> 10000 nM,"N#Cc1ccc(Oc2ncccc2OC[C@H]2CCCNC2)cc1F [Example 61, (S)-2-fluoro-4-[3-(piperidin-3-ylmethoxy)-pyridin-2-yloxy]-benzonitrile fumaric acid]"
68 nM,> 10000 nM,"COc1cc(C#N)ccc1Oc1ncccc1OC[C@H]1CCCNC1 [Example 62, (S)-3-methoxy-4-[3-(piperidin-3-ylmethoxy)-pyridin-2-yloxy]-benzonitrile fumaric acid]"
17 nM,860 nM,"Clc1ccc(Oc2ncccc2OC[C@H]2CCCNC2)cc1Cl [Example 64, (S)-2-(3,4-dichloro-phenoxy)-3-(piperidin-3-ylmethoxy)-pyridine fumaric acid]"
108 nM,> 10000 nM,"CCOc1ncccc1OC[C@H]1CCCNC1 [Example 79, (S)-2-ethoxy-3-(piperidin-3-ylmethoxy)-pyridine fumaric acid]"
102 nM,> 10000 nM,"CC(C)Oc1ncccc1OC[C@H]1CCCNC1 [Example 80, (S)-2-isopropoxy-3-(piperidin-3-ylmethoxy)-pyridine fumaric acid]"
84 nM,6130 nM,"c1cnc(OC2CCCCC2)c(OC[C@H]2CCCNC2)c1 [Example 81, (S)-2-cyclohexyloxy-3-(piperidin-3-ylmethoxy)-pyridine fumaric acid]"
3 nM,2030 nM,"CC[C@H](Oc1cccnc1Oc1ccccc1)[C@H]1CCCNC1 [Example 84, (S,S)-2-phenoxy-3-(1-piperidin-3-yl-propoxy)-pyridine fumaric acid]"
5 nM,2030 nM,"CC[C@H](Oc1cccnc1Oc1ccc(F)cc1)[C@H]1CCCNC1 [Example 85, (S,S)-2-(4-fluoro-phenoxy)-3-(1-piperidin-3-yl-propoxy)-pyridine fumaric acid]"
13 nM,705 nM,"CCOc1ncccc1O[C@@H](CC)[C@H]1CCCNC1 [Example 86, (S,S)-2-ethoxy-3-(1-piperidin-3-yl-propoxy)-pyridine fumaric acid]"

SMILES,Ki [1],Ki [2]
"CC[C@H](Oc1cccnc1OCC(C)C)[C@H]1CCCNC1 [Example 87, (S,S)-2-isobutoxy-3-(1-piperidin-3-yl-propoxy)-pyridine fumaric acid]",7 nM,350 nM
